Data taken from patent US9238020B2, “Compositions comprising enzyme-cleavable phenol-modified tapentadol prodrug” (priority 2010, dated 2016).

What was measured:
[1] = In vitro stability of Compound TP-1 to household chemicals and enzyme preparations; type: physicochemical
Protocol: Compound TP-1 (which can be prepared as described in the examples herein) was exposed at room temperature (RT) or 80° C. for either 1 or 24 hours (hr) to the following household chemicals: vodka (40% alcohol), baking soda (saturated sodium bicarbonate solution, pH 9), WINDEX® with Ammonia-D (pH 11) and vinegar (5% acetic acid). Compound TP-1 was also exposed to the following enzyme-containing compositions at RT for 1 or 24 hr: GNC® Super Digestive (2 capsules of GNC Super Digestive Enzymes dissolved in 5 mL of water), tenderizer (Adolf's meat tenderizer, primarily papain, dissolved in water to a concentration of 0.123 g/mL to approximate the concentration of a marinade given on the bottle label), and subtilisn (8 tablets of ULTRAZYME® contact lens cleaner (Advanced Medical Optics, Milpitas, Calif.) dissolved in 4 mL water). Samples were incubated as described and aliquots removed at 1 hr and 24 hr and stabilized by adding each to a solution of 50% or 100% of 85% phosphoric acid solution to achieve a final pH of less than or equal to pH 4. The stabilized aliquots were then diluted 4- to 6-fold with water, vortex-mixed and applied to HPLC.
The solid black bars indicate the percentage of Compound TP-1 remaining after exposure, and the lightly shaded bars with a black outline indicate the percentage conversion of Compound TP-1 to tapentadol.

[2] = Pharmacokinetics of tapentadol release following PO administration of prodrugs or tapentadol to rats; type: in vivo, rat
Protocol: Saline solutions of Compound TP-1 (which can be prepared as described in the examples herein) were dosed as indicated in Table 1 via oral gavage into 4 jugular vein-cannulated male Sprague Dawley rats that had been fasted for 16-18 hr prior to oral dosing. At specified time points, blood samples were drawn, harvested for plasma via centrifugation at 5,400 rpm at 4° C. for 5 min, and 100 microliters (μl) plasma transferred from each sample into a fresh tube containing 2 μl of 50% formic acid. The tubes were vortexed for 5-10 seconds, immediately placed in dry ice and then stored in a −80° C. freezer until analysis by HPLC/MS.
Saline solutions of Compounds TP-1, TP-3, TP-4, (which can be prepared as described in the examples herein) or tapentadol were dosed in approximately equimole amounts as indicated in Table 6. Dose administration, sampling and analysis procedures were as described in Example 11.
Dosing, sampling and analysis procedures were as described in Example 11.

human μ-opioid receptor = human μ-opioid receptor (Homo sapiens, UniProt P35372); experiment: In vitro human μ-opioid receptor binding assay ([3H]DAMGO, recombinant HEK-293 cells); parameters: expressed in transfected cells; host or cells: HEK-293; conditions: relative to tapentadol
human μ-opioid receptor, sequence (P35372 whole entry): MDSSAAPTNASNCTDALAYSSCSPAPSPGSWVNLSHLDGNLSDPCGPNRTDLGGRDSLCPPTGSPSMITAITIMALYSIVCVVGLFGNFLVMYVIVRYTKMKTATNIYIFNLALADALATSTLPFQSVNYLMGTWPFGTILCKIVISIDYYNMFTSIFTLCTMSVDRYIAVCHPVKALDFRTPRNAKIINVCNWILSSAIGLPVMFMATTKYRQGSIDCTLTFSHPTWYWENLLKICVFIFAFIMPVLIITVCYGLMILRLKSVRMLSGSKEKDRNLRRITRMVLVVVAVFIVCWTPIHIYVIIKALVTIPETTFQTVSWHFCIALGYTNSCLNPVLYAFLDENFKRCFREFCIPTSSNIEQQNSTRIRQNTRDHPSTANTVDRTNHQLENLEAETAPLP
Protocol: The general procedure follows the protocol described by J.-B. Wang, et al, 1994, FEBS Lett. 338, 217-222. More specifically, the assays included tapentadol or Compound TP-1 (which can be prepared as described in the examples herein) as well as recombinant HEK-293 cells expressing the human μ-opioid receptor on their cell surfaces, reference compound [d-Ala^2,N-Me-Phe^4,Gly^5−ol]-enkephalin (DAMGO), radioligand [^3H]DAMGO (0.5 nM) and non-specific ligand naloxone (10 uM). The reaction mixtures were incubated at 22° C. for 2 hr. The samples were then submitted to scintillation counting.
In these assays, the specific binding of a test compound to the receptor is defined as the difference between the total binding and the non-specific binding determined in the presence of an excess of unlabelled ligand. Results are expressed as a percent of control of specific binding and as a percent inhibition of control specific binding obtained in the presence of test compounds. The IC50 values (concentration of competing ligand required for 50% inhibition of [^3H]DAMGO binding), and Hill coefficients (nH) were determined by non-linear regression analysis of competition curves using Hill equation curve fitting.

[3] = Pharmacokinetics of prodrug and tapentadol following IV administration to rats; conditions: male, Sprague Dawley, in vivo; prodrug in rat plasma; TP-1 IV 2 mg/kg (3 μmol/kg); read-out: TP-1 Cmax ± sd
Protocol: Compound TP-1 (which can be prepared as described in the examples herein) was dissolved in saline and injected into the tail vein of 4 jugular vein-cannulated male Sprague Dawley rats at a dose of 2 mg/kg. At specified time points, blood samples were drawn, harvested for plasma via centrifugation at 5,400 rpm at 4° C. for 5 min, and 100 μl plasma transferred from each sample into a fresh tube containing 2 μl of 50% formic acid. The tubes were vortexed for 5-10 seconds, immediately placed in dry ice and then stored in a −80° C. freezer until analysis by high performance liquid chromatography/mass spectrometry (HPLC/MS).
Table 2 and FIG. 4 provide Compound TP-1 and tapentadol exposure results for rats administered Compound TP-1 intravenously. Results in Table 2 are reported as maximum plasma concentration (Cmax) of Compound TP-1 and tapentadol (TP), respectively, (average±standard deviation).
Compound TP-3 or Compound TP-4 (which can be prepared as described in the examples herein), or tapentadol were dissolved in saline and injected into the tail vein of four jugular vein-cannulated male Sprague Dawley rats at a dose of 2 mg/kg. Sampling and analysis procedures were as described in Example 12.

## CC[C@@H](c1cccc(OC(=O)N(C)CCNC(=O)[C@H](CCCNC(=N)N)NC(=O)CC(=O)O)c1)[C@@H](C)CN(C)C [Compound TP-1, N—[(S)-1-(2-{[3-((1R,2R)-3-dimethylamino-1-ethyl-2-methyl-propyl)-phenoxycarbonyl]-methyl-amino}-ethylcarbamoyl)-4-guanidino-butyl]-malonamic acid]
[1]; all other conditions (household chemicals at RT or 80° C., enzyme preparations at RT, 1 or 24 hr)
  conversion to tapentadol: less than 10%
[1]; sodium bicarbonate at 80° C. or Windex at 80° C. for 24 hr
  conversion to tapentadol: 10-20%
[2]; 5 to 50 mg/kg
  plasma concentrations of tapentadol versus prodrug dose: increase proportionally
[2]; approximately equimole amounts
  tapentadol plasma concentration profile compared to administration of tapentadol: suppressed Cmax and delayed Tmax
Human μ-opioid receptor
  affinity for the μ-opioid receptor, fold less than that of tapentadol: at least 200 fold
[3]
  Cmax: 965 ± 160 ng/mL
